Values after ≈ are worked out from the molar mass of the structure shown. Active and inactive are the calls of the source. No cut-off for these calls is given here.
Tests used:
5'-nucleotidase [1] = biological target: T1, 5'-nucleotidase (Mus musculus, UniProt Q61503); assay: Inhibition of C-terminal 6His-tagged recombinant mouse CD73 (29 to 549 residues) expressed in CHO cells incubated for 1 hr by malachite green assay; assay type: cell-based
T1 sequence (Q61503 whole entry): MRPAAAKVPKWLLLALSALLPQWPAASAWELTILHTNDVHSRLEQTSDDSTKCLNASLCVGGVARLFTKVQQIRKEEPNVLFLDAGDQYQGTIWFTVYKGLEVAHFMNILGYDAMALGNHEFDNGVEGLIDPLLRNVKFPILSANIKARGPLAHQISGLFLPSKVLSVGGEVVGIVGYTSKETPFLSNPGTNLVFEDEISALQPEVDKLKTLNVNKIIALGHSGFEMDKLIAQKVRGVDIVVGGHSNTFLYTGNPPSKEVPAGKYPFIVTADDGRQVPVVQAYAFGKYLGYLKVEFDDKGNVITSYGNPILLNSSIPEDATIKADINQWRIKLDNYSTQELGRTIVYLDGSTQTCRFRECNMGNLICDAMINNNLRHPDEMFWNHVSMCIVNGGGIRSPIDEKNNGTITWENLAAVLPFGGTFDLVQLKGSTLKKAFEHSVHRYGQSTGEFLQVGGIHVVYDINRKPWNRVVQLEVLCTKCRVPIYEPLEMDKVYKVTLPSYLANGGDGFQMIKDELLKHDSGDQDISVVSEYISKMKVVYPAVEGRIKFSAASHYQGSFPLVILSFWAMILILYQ

[2] = Drug concentration in mouse plasma at 50 mg/kg, po administered as single dose measured after 24 hrs by LC/MS analysis; assay type: ADME, organism-based
5'-nucleotidase [3] = biological target: T1, 5'-nucleotidase; assay: Inhibition of CD73 in mouse plasma incubated for 5 mins in presence of 15N5-AMP by LC/MS analysis; assay type: cell-free
[4] = Tmax in CD rat at 500 mg/kg, po measured for 24 hrs by LC-MS/MS analysis; assay type: ADME, organism-based; details: in vivo
[5] = Cmax in CD rat at 500 mg/kg, po measured for 24 hrs by LC-MS/MS analysis; assay type: ADME, organism-based; design: dose 500 mg/kg, time 24 hrs, route po; details: in vivo
5'-nucleotidase [6] = biological target: T2, 5'-nucleotidase (Homo sapiens, UniProt P21589); assay: Inhibition of CD73 in human plasma derived from ovarian cancer patient incubated for 15 mins in presence of 15N5-AMP by LC/MS analysis; assay type: cell-free
[7] = Plasma protein binding in human assessed as unbound fraction; assay type: ADME, cell-free
[8] = Cytotoxicity against human CD8-positive T cells at 100 uM incubated for 4 days by Cell Titer-Glo assay; assay type: toxicity, cell-based; details: 96 h, time 4 day
EG7 [9] = assay: Antitumor activity against mouse EG7 cells implanted in C57BL/6 mouse assessed as reduction in tumor volume at 10 to 50 mg/kg, po bid administered for 20 days; assay type: functional, organism-based; details: dose 10-50 mg/kg, time 20.0 day
Cytochrome P450 2D6 = Cytochrome P450 2D6 (Homo sapiens, UniProt P10635); assay: Inhibition of human CYP2D6 at 10 uM; assay type: ADME
[10] = AUC (0 to 24 hrs) in CD rat at 500 mg/kg, po measured for 24 hrs by LC-MS/MS analysis; assay type: ADME, organism-based; design: time 24 hrs, dose 500 mg/kg, route po; details: in vivo
[11] = Plasma protein binding in mouse at 10 uM assessed as bound fraction; assay type: ADME, cell-free; details: read-out: PPB (converted)
[12] = AUC (0 to 24 hrs) in CD rat at 200 mg/kg, po measured for 24 hrs by LC-MS/MS analysis; assay type: ADME, organism-based; design: dose 200 mg/kg, time 24 hrs, route po; details: in vivo
5'-nucleotidase [13] = biological target: T2, 5'-nucleotidase; assay: Inhibition of CD73 in human plasma derived from TNBC cancer patient incubated for 15 mins in presence of 15N5-AMP by LC/MS analysis; assay type: cell-free
[14] = Plasma protein binding in rat at 10 uM assessed as bound fraction; assay type: ADME, cell-free; details: read-out: PPB (converted)
EG7 [15] = assay: Antiproliferative activity against mouse EG7 cells at 100 uM incubated for 3 days by Cell Titer-Glo assay; assay type: functional, cell-based; details: time 3.0 day
CD8-positive T cell [16] = assay: Reversal of AMP-mediated suppression of human CD8-positive T cell proliferation at 0.01 to 1000 nM measured after 4 days by flow cytometry; assay type: functional, cell-based; details: dose 0.01-1000 nM, time 4.0 day
Cytochrome P450 2C9 = Cytochrome P450 2C9 (Homo sapiens, UniProt P11712); assay: Inhibition of human CYP2C9 at 10 uM; assay type: ADME
Cytochrome P450 2C19 = Cytochrome P450 2C19 (Homo sapiens, UniProt P33261); assay: Inhibition of human CYP2C19 at 10 uM; assay type: ADME
[17] = Plasma protein binding in human at 10 uM assessed as bound fraction; assay type: ADME, cell-free; details: read-out: PPB (converted)
[18] = In vivo inhibition of plasma CD73 in mouse xenografted with mouse EG7 cells at 50 mg/kg, po bid administered for 20 days and measured after 2 hrs post last dose in presence of 15N5-AMP and TNAP inhibitor by LC/MS analysis relative to control; assay type: functional; details: EG7, 480 h, time 20 day
[19] = Selectivity ratio of IC50 for CD73 in human plasma to IC50 for C-terminal 6His-tagged recombinant human CD73 (27 to 547 residues) expressed in CHO cells; assay type: cell-based
CD8-positive T cell [20] = assay: Reversal of AMP-mediated suppression of human CD8-positive T cells function assessed as increase in IFN-gamma level at 0.01 to 1000 nM measured after 4 days by ELISA; assay type: functional, cell-based; details: dose 0.01-1000 nM, time 4.0 day
[21] = Plasma protein binding in dog at 10 uM assessed as bound fraction; assay type: ADME, cell-free, Canis lupus familiaris; details: read-out: PPB (converted)
CD8-positive T cell [22] = assay: Reversal of AMP-mediated suppression of human CD8-positive T cells function assessed as increase in CD25 expression at 0.01 to 1000 nM measured after 4 days by flow cytometry; assay type: functional, cell-based; details: dose 0.01-1000 nM, time 4.0 day
5'-nucleotidase [23] = biological target: T2, 5'-nucleotidase; assay: Inhibition of CD73 in human plasma derived from esophageal cancer patient incubated for 15 mins in presence of 15N5-AMP by LC/MS analysis; assay type: cell-free
EG7 [24] = assay: Antitumor activity against mouse EG7 cells implanted in C57BL/6 mouse assessed as reduction in tumor volume at 100 mg/kg, po bid administered for 21 days in presence of anti-PD-L1 antibody; assay type: functional, organism-based; details: time 21.0 day
[25] = AUC (0 to 24 hrs) in CD rat at 50 mg/kg, po measured for 24 hrs by LC-MS/MS analysis; assay type: ADME, organism-based; design: time 24 hrs, dose 50 mg/kg, route po; details: in vivo
[26] = Oral bioavailability in CD rat at 50 mg/kg measured for 24 hrs by LC-MS/MS analysis; assay type: ADME, organism-based; details: in vivo, po, 50 mg/kg, 24 h
A-375 = assay: Antiproliferative activity against human A-375 cells at 100 uM incubated for 3 days by Cell Titer-Glo assay; assay type: functional, cell-based; details: time 3.0 day
[27] = Aqueous solubility of compound at pH 1 to 7; assay type: physicochemical; details: aqueous solution
[28] = Drug concentration in tumor of mouse implanted with mouse EG7 cells at 10 to 50 mg/kg, po bid administered for 20 days and measured after 16 hrs post-last dose by LC/MS analysis; assay type: ADME, organism-based, Neoplasm; details: dose 10-50 mg/kg, time 20 day, read-out: Ct

T2 sequence (P21589 whole entry): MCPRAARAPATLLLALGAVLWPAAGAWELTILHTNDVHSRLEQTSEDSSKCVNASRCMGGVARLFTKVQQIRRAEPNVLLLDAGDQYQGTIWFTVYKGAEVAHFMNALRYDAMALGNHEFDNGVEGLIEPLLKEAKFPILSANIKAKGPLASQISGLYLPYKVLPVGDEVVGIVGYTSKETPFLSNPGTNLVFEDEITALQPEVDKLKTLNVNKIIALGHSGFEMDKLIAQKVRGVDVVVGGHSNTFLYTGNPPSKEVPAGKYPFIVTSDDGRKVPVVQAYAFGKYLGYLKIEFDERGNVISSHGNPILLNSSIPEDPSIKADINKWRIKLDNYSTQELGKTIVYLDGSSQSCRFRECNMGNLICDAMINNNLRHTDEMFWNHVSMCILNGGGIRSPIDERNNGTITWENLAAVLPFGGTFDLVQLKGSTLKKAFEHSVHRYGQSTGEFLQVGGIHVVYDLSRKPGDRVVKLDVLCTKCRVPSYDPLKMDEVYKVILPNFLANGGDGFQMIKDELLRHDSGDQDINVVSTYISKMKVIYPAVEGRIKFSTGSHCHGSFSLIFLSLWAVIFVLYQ
Sequence of Cytochrome P450 2D6 (P10635 whole entry): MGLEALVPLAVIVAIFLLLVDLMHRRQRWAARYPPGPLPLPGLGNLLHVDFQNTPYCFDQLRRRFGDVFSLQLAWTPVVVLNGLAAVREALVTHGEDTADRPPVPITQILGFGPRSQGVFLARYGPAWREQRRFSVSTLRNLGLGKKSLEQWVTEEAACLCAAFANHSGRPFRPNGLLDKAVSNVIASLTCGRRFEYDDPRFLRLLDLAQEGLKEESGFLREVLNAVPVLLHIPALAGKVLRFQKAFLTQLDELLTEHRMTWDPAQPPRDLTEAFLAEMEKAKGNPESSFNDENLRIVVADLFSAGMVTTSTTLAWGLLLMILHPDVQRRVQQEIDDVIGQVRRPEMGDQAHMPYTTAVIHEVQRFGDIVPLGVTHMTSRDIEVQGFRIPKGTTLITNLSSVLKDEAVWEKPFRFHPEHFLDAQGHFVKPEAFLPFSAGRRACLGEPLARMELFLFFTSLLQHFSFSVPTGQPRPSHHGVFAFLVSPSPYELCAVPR
Sequence of Cytochrome P450 2C9 (P11712 whole entry): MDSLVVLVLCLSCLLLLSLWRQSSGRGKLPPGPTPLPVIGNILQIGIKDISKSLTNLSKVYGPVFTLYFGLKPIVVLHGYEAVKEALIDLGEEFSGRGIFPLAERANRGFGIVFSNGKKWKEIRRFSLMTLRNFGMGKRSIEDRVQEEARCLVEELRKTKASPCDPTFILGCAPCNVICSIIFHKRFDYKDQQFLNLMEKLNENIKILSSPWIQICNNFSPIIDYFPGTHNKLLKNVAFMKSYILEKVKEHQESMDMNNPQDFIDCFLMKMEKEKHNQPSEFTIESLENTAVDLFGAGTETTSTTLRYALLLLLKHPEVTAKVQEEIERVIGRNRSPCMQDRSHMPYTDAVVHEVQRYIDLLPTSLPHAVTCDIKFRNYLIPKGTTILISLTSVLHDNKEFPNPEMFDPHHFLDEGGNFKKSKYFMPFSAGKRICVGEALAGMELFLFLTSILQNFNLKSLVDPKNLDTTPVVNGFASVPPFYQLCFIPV
Sequence of Cytochrome P450 2C19 (P33261 whole entry): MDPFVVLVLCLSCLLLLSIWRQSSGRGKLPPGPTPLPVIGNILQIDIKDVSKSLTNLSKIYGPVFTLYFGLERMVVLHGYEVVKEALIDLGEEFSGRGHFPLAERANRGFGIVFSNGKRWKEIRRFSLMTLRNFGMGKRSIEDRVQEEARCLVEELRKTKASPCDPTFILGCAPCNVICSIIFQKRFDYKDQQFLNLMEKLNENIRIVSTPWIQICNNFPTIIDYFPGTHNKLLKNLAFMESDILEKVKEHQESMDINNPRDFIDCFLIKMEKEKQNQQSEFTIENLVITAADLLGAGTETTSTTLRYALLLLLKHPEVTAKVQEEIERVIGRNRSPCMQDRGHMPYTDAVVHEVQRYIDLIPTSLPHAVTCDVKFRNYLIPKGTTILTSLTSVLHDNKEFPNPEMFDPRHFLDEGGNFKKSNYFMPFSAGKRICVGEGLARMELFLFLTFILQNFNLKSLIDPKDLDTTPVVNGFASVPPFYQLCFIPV

IC50 (5'-nucleotidase [1]): 1.3 nM
concentration at 24 h [2]: > 0.001 µM
IC50 (5'-nucleotidase [3]): 1.2 nM
Tmax [4]: 18 min
Cmax [5]: 11 µM
IC50 (5'-nucleotidase [6]): 0.15 nM
fraction unbound [7]: 0.42
inhibition (INH) (Cytochrome P450 2D6): Not Active
AUC(0-t) at 24 h [10]: 18.5 µg·h/mL
fraction unbound at 10 µM [11]: 0.37
AUC(0-t) at 24 h [12]: 6.09 µg·h/mL
IC50 (5'-nucleotidase [13]): 0.18 nM
fraction unbound at 10 µM [14]: 0.29
inhibition (INH) (Cytochrome P450 2C9): Not Active
inhibition (INH) (Cytochrome P450 2C19): Not Active
fraction unbound at 10 µM [17]: 0.42
fraction unbound at 10 µM [21]: 0.58
IC50 (5'-nucleotidase [23]): 0.1 nM
AUC [25]: 0.58 µg·h/mL
F [26]: 2.8%
solubility [27]: 3.88 mg/mL (≈ 6.3 mM)
concentration at 480 h [28]: > 0.003 µM
Compound: C#C[C@@]1(O)[C@@H](COC(Cc2ccc(N3CCCNC3=O)cc2)(C(=O)O)C(=O)O)O[C@@H](n2cnc3c(N)nc(Cl)nc32)[C@@H]1O
Activity [8]: Non-Toxic
Activity (EG7 [9]): Active
Activity (EG7 [15]): inactive
Activity (CD8-positive T cell [16]): Active
inhibition in vivo at 50 mg/kg [18]: 92%
Ratio IC50 [19]: 2.2
Activity (CD8-positive T cell [20]): Active
Activity (CD8-positive T cell [22]): Active
Activity (EG7 [24]): Active
Activity (A-375): inactive
